PMC7194099, “Transient expression and purification of β-caryophyllene synthase in Nicotiana benthamiana to produce β-caryophyllene in vitro” (PeerJ, 2020)

Target: T1, AaCPS1 (β-caryophyllene synthase) (Artemisia annua, UniProt A0A059PYD5)
T1 construct: gene CPS; C-terminal 6xHis tag kept; transient expression in Nicotiana benthamiana (pEAQ-HT)
Experiment: GC-MS of dodecane overlay
Assay type: biochemical
Settings: 20 µM FPP, 20 mM MgCl2, 20 mM Tris-HCl pH 7.0, 10% glycerol, 2 mM DTT, 30 °C, 4 h; products β-caryophyllene (main) and α-humulene

T1 sequence (A0A059PYD5 1-550): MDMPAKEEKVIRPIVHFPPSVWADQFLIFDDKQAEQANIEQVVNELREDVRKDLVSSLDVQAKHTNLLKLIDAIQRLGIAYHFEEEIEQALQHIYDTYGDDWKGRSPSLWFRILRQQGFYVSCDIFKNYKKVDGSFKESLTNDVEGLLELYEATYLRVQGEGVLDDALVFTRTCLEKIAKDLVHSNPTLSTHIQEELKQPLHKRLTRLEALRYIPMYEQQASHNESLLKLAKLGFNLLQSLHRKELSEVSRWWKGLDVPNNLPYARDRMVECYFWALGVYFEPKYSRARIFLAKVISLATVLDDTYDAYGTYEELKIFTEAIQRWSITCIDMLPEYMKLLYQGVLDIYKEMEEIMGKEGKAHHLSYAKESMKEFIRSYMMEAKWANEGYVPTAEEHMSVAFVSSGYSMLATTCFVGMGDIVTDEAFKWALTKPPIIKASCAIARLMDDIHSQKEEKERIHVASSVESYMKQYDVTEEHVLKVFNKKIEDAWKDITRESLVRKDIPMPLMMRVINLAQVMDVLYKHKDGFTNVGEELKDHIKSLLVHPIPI

## CC(C)=CCC/C(C)=C/CC/C(C)=C/COP(=O)(O)OP(=O)(O)O [FPP, farnesyl diphosphate]
  GC-MS of dodecane overlay: the purified AaCPS1 was incubated with the substrate FPP
